# From patent publication US10273224B2, “Substituted pyrimidine compounds, compositions and medicinal applications thereof” (JUBILANT BIOSYS LIMITED, priority 2013, dated 2019)
# Counter-ions that a name gives are not always drawn.
# Target: T1, EGFR (L858R & T790M) (Homo sapiens, UniProt P00533, L858R/T790M)
# T1 construct: GST; purchased Proqinase
# Assay: EGFR (L858R & T790M) inhibition assay, HTRF method
# Conditions: biochemical HTRF; EGFR (T790M/L858R) 2.5 nM, ATP 5 μM, 60 min room temperature
# Outline: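 GST-EGFR T790M/L858R (2.5 nM) phosphorylating biotinylated gastrin precursor peptide (0.5 μM) with 5 μM ATP in HEPES pH 7.4/Mg/Mn buffer, 60 min room temperature; compounds from 10 μM top. HTRF read-out (Eu anti-pTyr, SA-APC), 665/620 nm; IC50 from % inhibition.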
# T1 sequence (P00533 25-1210 T790M/L858R): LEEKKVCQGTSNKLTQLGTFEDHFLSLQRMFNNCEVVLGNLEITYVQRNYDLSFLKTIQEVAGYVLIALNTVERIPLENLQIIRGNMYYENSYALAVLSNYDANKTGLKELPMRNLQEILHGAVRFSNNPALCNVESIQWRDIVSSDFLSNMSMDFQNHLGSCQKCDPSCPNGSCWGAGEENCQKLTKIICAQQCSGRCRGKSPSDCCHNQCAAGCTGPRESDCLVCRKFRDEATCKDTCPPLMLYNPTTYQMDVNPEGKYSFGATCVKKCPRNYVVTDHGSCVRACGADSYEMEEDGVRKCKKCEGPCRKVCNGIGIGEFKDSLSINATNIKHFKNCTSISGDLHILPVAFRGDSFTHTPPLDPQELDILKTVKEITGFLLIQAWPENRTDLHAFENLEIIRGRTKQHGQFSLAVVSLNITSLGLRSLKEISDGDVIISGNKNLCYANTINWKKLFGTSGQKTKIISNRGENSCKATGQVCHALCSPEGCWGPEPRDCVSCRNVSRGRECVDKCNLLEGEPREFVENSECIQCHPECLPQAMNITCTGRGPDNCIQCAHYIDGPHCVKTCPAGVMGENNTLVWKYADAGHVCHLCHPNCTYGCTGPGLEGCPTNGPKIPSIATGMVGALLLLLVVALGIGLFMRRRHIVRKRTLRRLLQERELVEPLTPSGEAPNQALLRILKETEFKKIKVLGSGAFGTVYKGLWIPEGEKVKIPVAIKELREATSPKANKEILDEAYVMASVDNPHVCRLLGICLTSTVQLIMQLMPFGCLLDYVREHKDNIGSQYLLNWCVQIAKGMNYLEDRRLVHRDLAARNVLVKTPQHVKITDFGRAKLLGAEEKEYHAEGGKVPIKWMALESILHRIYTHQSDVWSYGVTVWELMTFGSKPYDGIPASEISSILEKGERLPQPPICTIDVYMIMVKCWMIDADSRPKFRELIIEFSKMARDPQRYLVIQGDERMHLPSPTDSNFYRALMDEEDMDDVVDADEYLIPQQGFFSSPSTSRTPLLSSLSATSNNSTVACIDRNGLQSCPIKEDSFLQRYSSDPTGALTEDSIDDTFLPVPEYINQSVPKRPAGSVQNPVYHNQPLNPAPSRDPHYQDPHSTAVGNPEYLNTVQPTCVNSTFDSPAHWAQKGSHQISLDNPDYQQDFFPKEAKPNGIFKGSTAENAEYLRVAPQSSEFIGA
row,IC50 [nM],Structure (SMILES)
1,> 100,"C=CC(=O)Nc1cccc(Nc2nc(Nc3cc(CN4CCC4)n(C)n3)ncc2Cl)c1 [Compound I-42, N-(3-((2-((5-(azetidin-1-ylmethyl)-1-methyl-1H-pyrazol-3-yl)amino)-5-chloropyrimidin-4-yl)amino)phenyl)acrylamide, acetate salt]"
2,> 100,"C=C(F)C(=O)Nc1cccc(Nc2nc(Nc3cnn(C)c3)ncc2Cl)c1 [Compound I-33, N-(3-((5-chloro-2-((1-methyl-1H-pyrazol-4-yl)amino)pyrimidin-4-yl)amino)phenyl)-2-fluoroacrylamide]"
3,> 100,"C=CC(=O)Nc1cccc(Oc2nc(Nc3c(C)nn(C4CCN(C)CC4)c3C)ncc2Cl)c1 [Compound I-83, N-(3-((5-chloro-2-((3,5-dimethyl-1-(1-methylpiperidin-4-yl)-1H-pyrazol-4-yl)amino)pyrimidin-4-yl)oxy)phenyl)acrylamide]"
4,> 100,"CN(C)C/C=C/C(=O)N1CCCC(Nc2nc(Nc3cnn(C)c3)ncc2Cl)C1 (single isomer, unassigned) [II-3 (Enantiomer 1), (E)-1-(3-((5-chloro-2-((1-methyl-1H-pyrazol-4-yl)amino)pyrimidin-4-yl)amino)piperidin-1-yl)-4-(dimethylamino)but-2-en-1-one]"
5,> 100,"COCCn1cc(Nc2ncc(Cl)c(Nc3cccc(NC(=O)C=C4CCCCC4)c3)n2)cn1 [Compound I-6, N-(3-((5-chloro-2-((1-(2-methoxyethyl)-1H-pyrazol-4-yl)amino)pyrimidin-4-yl)amino)phenyl)-2-cyclohexylideneacetamide]"
6,< 10,"C=CC(=O)Nc1cccc(Nc2nc(Nc3cnn(C4CCN(CCF)CC4)c3)ncc2Cl)c1 [Compound I-16, N-(3-((5-chloro-2-((1-(1-(2-fluoroethyl)piperidin-4-yl)-1H-pyrazol-4-yl)amino)pyrimidin-4-yl)amino)phenyl)acrylamide]"
7,10 to 100,"C=CC(=O)N[C@@H]1CCCC[C@H](Nc2nc(Nc3cnn(C)c3)ncc2Cl)C1 (single isomer, unassigned) [I-113 (Isomer 2)]"
8,> 100,"CN1CCC(n2cc(Nc3ncc(Cl)c(Nc4cccc(NC(=O)C=C5CCCCC5)c4)n3)cn2)CC1 [Compound I-28, N-(3-((5-chloro-2-((1-(1-methylpiperidin-4-yl)-1H-pyrazol-4-yl)amino)pyrimidin-4-yl)amino)phenyl)-2-cyclohexylideneacetamide]"
9,> 100,"CN(C)C/C=C/C(=O)NC1CCCC(Oc2nc(Nc3cnn(C)c3)ncc2Cl)C1 (single isomer, unassigned) [I-91 (Isomer 2), (E)-N-(3-((5-chloro-2-((1-methyl-1H-pyrazol-4-yl)amino)pyrimidin-4-yl)oxy)cyclohexyl)-4-(dimethylamino)but-2-enamide]"
10,> 100,"C=CC(=O)NC1CCCC(Oc2nc(Nc3cnn(C)c3)ncc2Cl)C1 (single isomer, unassigned) [I-88 (Isomer 1), N-(3-((5-chloro-2-((1-methyl-1H-pyrazol-4-yl)amino)pyrimidin-4-yl)oxy)cyclohexyl)acrylamide]"
11,< 10,"C=CC(=O)Nc1cccc(Nc2nc(Nc3cc(C)ns3)ncc2Cl)c1 [Compound I-122, N-(3-((5-chloro-2-((3-methylisothiazol-5-yl)amino)pyrimidin-4-yl)amino)phenyl)acrylamide]"
12,< 10,"C=CC(=O)Nc1cccc(Oc2nc(Nc3cnn(CCO)c3)ncc2Cl)c1 [Compound I-47, N-(3-((5-chloro-2-((1-(2-hydroxyethyl)-1H-pyrazol-4-yl)amino)pyrimidin-4-yl)oxy)phenyl)acrylamide]"
13,> 100,"CN(C)C/C=C/C(=O)N[C@H]1CCC[C@H](CNc2nc(Nc3cnn(C)c3)ncc2Cl)C1 (single isomer, unassigned) [I-103 (diastereomer 2)]"
14,< 10,"C=CC(=O)Nc1cc(Nc2nc(Nc3cnn(C4CCN(C)CC4)c3)ncc2Cl)c(F)cc1F [Compound I-69, N-(5-((5-chloro-2-((1-(1-methylpiperidin-4-yl)-1H-pyrazol-4-yl)amino)pyrimidin-4-yl)amino)-2,4-difluorophenyl)acrylamide]"
15,> 100,"C=CC(=O)Nc1cccc(Nc2nc(Nc3cnn(Cc4cccc(C)n4)c3)ncc2Cl)c1 [Compound I-52, N-(3-((5-chloro-2-((1-((6-methylpyridin-2-yl)methyl)-1H-pyrazol-4-yl)amino)pyrimidin-4-yl)amino)phenyl)acrylamide]"
16,10 to 100,"C=CS(=O)(=O)Nc1cc(Nc2nc(Nc3cnn(C4CCN(C)CC4)c3)ncc2Cl)ccc1F [Compound I-64, N-(5-((5-chloro-2-((1-(1-methylpiperidin-4-yl)-1H-pyrazol-4-yl)amino)pyrimidin-4-yl)amino)-2-fluorophenyl)ethenesulfonamide]"

row,Structure (SMILES),IC50 [nM]
1,"C=CC(=O)Nc1cccc(Nc2nc(Nc3cnn(C4CC5CCC(C4)N5C)c3)ncc2Cl)c1 (centres unmarked) [Compound I-48, N-(3-((5-chloro-2-((1-(8-methyl-8-azabicyclo[3.2.1]octan-3-yl)-1H-pyrazol-4-yl)amino)pyrimidin-4-yl)amino)phenyl)acrylamide]",10 to 100
